{"source": "paper PMC8219695", "about": "(Nature Communications, 2021)", "key": {"hDOR": {"molecular_target": "hDOR (Homo sapiens, UniProt P41143)", "experiment": "CAMYEL BRET cAMP agonist assay at hDOR", "format": "cell-based", "conditions": "for Agonist activity of 7OH analogs at hDOR: single replicate values, Supplementary Figure 7A"}, "hKOR": {"molecular_target": "hKOR (Homo sapiens, UniProt P41145)", "experiment": "CAMYEL BRET cAMP agonist assay at hKOR", "format": "cell-based", "conditions": "individual replicates, Supplementary Figure 8A source data"}, "mMOR [1]": {"molecular_target": "T1, mMOR (Mus musculus, UniProt P42866)", "T1 construct": "signal peptide (heterologous, not specified) (N); expressed in transfected cells; pcDNA3.1(+) construct made in house", "experiment": "[125I]BNtxA radioligand competition binding, mouse MOR", "conditions": "mean ± SEM, n = 3; [125I]BNtxA; read-out: Ki ± SEM mMOR"}, "mKOR": {"molecular_target": "T2, mKOR (Mus musculus, UniProt P33534)", "T2 construct": "expressed in transfected cells; membranes", "experiment": "[125I]BNtxA radioligand competition binding, mouse KOR", "conditions": "mean ± SEM, n = 3; [125I]BNtxA; read-out: Ki ± SEM mKOR"}, "mMOR [2]": {"molecular_target": "T1, mMOR", "experiment": "CAMYEL BRET antagonism assay at mMOR (inhibition of DAMGO);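 on Antagonist activity at mMOR, raw signal (single replicate values): BRET signal rises as cAMP falls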", "format": "cell-based", "conditions": "for Antagonist activity at mMOR, raw signal (single replicate values): source data of Fig 8a and Table 5, listed as C11-Cl-7OH (23)"}, "mMOR [3]": {"molecular_target": "T1, mMOR", "experiment": "CAMYEL BRET cAMP agonist assay at mMOR", "format": "cell-based", "conditions": "mMOR; for cAMP %: single replicates, source data Fig 6b, listed as C11-Cl-7OH (23)"}, "mDOR": {"molecular_target": "T3, mDOR (Mus musculus, UniProt P32300)", "T3 construct": "expressed in transfected cells", "experiment": "[125I]BNtxA radioligand competition binding, mouse DOR", "conditions": "mean ± SEM, n = 3; [125I]BNtxA; read-out: Ki ± SEM mDOR"}, "hMOR": {"molecular_target": "T4, hMOR (Homo sapiens, UniProt P35372)", "T4 construct": "expressed in transfected cells; plasmid a gift from Dr. Nevin Lambert", "experiment": "cell-based"}}, "note": "Where “and” joins values, the source holds several entries; their conditions need not be identical. Equal entries are not always repeated."}
{"smiles": "CC[C@@H]1CN2CC[C@@]3(O)C(=Nc4cc(Cl)cc(OC)c43)[C@@H]2C[C@@H]1/C(=C\\OC)C(=O)OC", "note": "[11-Cl-7OH (23), 11-Cl-7OH]", "values": [{"measurement": "Agonist activity of 7OH analogs at hDOR", "setting": "hDOR; Log[drug] (M) -10", "value": "5.724 and 19.2021 and 4.266 and 3.553 and -1.827 and 11.1585 and 2.694 and 3.131 and 7.14"}, {"measurement": "Agonist activity of 7OH analogs at hDOR", "setting": "hDOR; Log[drug] (M) -11", "value": "7.339 and 12.4107 and 20.099 and 7.6883 and 4.754 and 8.248 and 8.188 and 1.326 and 2.427"}, {"measurement": "Agonist activity of 7OH analogs at hDOR", "setting": "hDOR; Log[drug] (M) -13", "value": "-6.485 and 2.218 and 4.267 and 9.369 and -0.6447 and 11.9855 and 0.02092 and 7.539 and 4.083"}, {"measurement": "Emax", "setting": "hDOR; hDOR cAMP BRET, positive control DPDPE", "value": "very low efficacy"}, {"measurement": "Agonist activity of 7OH analogs at hKOR", "setting": "hKOR; Log [drug](M) -5", "value": "9.026 and -5.895 and 4.248 and 11.9704 and 8.484 and 2.501 and -3.893 and 6.434 and -2.541"}, {"measurement": "Agonist activity of 7OH analogs at hKOR", "setting": "hKOR; Log [drug](M) -6", "value": "-2.414 and -2.835 and -8.98 and 12.2163 and 1.484 and -5.782 and -0.574 and -6.895 and -9.704"}, {"measurement": "Agonist activity of 7OH analogs at hKOR", "setting": "hKOR; Log [drug](M) -7", "value": "-11.1771 and -3.626 and -0.5883 and -1.763 and -7.04 and -2.623 and -4.522 and -13.931 and 0.01935"}, {"measurement": "Agonist activity of 7OH analogs at hKOR", "setting": "hKOR; Log [drug](M) -8", "value": "2.99 and -4.136 and 1.141 and -3.765 and -7.282 and -9.586 and -2.533 and -2.303 and 3.7063"}, {"measurement": "Agonist activity of 7OH analogs at hKOR", "setting": "hKOR; Log [drug](M) -9", "value": "-6.592 and -11.4451 and 3.708 and 3.417 and -6.737 and -11.3529 and 17.5943 and 11.6069 and 9.781"}, {"measurement": "Agonist activity of 7OH analogs at hKOR", "setting": "hKOR; Log [drug](M) -10", "value": "-2.387 and -3.9069 and 3.049 and -10.4557 and -1.189 and 2.17 and 4.733 and 0.5961 and 8.633"}, {"measurement": "Agonist activity of 7OH analogs at hKOR", "setting": "hKOR; Log [drug](M) -11", "value": "8.282 and -7.987 and 6.107 and 1.524 and -1.1871 and -6.8877 and 2.73 and 5.876 and 10.03"}, {"measurement": "Agonist activity of 7OH analogs at hKOR", "setting": "hKOR; Log [drug](M) -13", "value": "4.46 and -4.721 and 0.2615 and 1.311 and -2.987 and 1.677 and 6.874 and 5.681 and 9.762"}, {"measurement": "Ki", "setting": "mMOR [1]", "value": "27.1 ± 1.1", "unit": "nM"}, {"measurement": "Ki", "setting": "mKOR", "value": "30.7 ± 11.4", "unit": "nM"}, {"measurement": "IC50", "setting": "mMOR [2]", "value": 320, "unit": "nM"}, {"measurement": "Antagonist activity at mMOR, raw signal (single replicate values)", "setting": "mMOR [2]; Log[drug] (M) -5", "value": "0.05136 and 0.05514 and 0.02734 and 0.03399 and 0.05638 and 0.03174 and 0.0604 and 0.04123 and 0.04243"}, {"measurement": "Antagonist activity at mMOR, raw signal (single replicate values)", "setting": "mMOR [2]; Log[drug] (M) -6", "value": "0.06527 and 0.08059 and 0.08038 and 0.07596 and 0.06694 and 0.07308 and 0.08894 and 0.05009 and 0.07552"}, {"measurement": "Antagonist activity at mMOR, raw signal (single replicate values)", "setting": "mMOR [2]; Log[drug] (M) -7", "value": "0.171 and 0.1656 and 0.1405 and 0.1722 and 0.164 and 0.1548 and 0.1502 and 0.1538 and 0.167"}, {"measurement": "Antagonist activity at mMOR, raw signal (single replicate values)", "setting": "mMOR [2]; Log[drug] (M) -8", "value": "0.2056 and 0.1941 and 0.1944 and 0.1853 and 0.1938 and 0.208 and 0.1628 and 0.1712 and 0.1714"}, {"measurement": "Antagonist activity at mMOR, raw signal (single replicate values)", "setting": "mMOR [2]; Log[drug] (M) -9", "value": "0.1978 and 0.1907 and 0.2036 and 0.185 and 0.2114 and 0.2034 and 0.1755 and 0.1681 and 0.1723"}, {"measurement": "Antagonist activity at mMOR, raw signal (single replicate values)", "setting": "mMOR [2]; Log[drug] (M) -10", "value": "0.2063 and 0.2294 and 0.2076 and 0.2027 and 0.2013 and 0.2029 and 0.1793 and 0.1909 and 0.175"}, {"measurement": "Antagonist activity at mMOR, raw signal (single replicate values)", "setting": "mMOR [2]; Log[drug] (M) -11", "value": "0.1963 and 0.2104 and 0.2086 and 0.1881 and 0.2054 and 0.206 and 0.1763 and 0.1632 and 0.1788"}, {"measurement": "cAMP %", "setting": "mMOR [3]; Log[drug] (M) -5", "value": "6.435% and 6.384% and 16.5545% and 12.4027% and 11.5958% and 9.171% and 11.6377% and 17.8045% and 15.1324%"}, {"measurement": "cAMP %", "setting": "mMOR [3]; Log[drug] (M) -6", "value": "18.6614% and 4.689% and 11.9914% and 8.341% and 7.121% and 7.194% and 11.7839% and 2.54% and 3.967%"}, {"measurement": "cAMP %", "setting": "mMOR [3]; Log[drug] (M) -7", "value": "11.7629% and -2.4507% and 10.3244% and 12.5872% and 11.439% and 4.6796% and 1.65% and 1.082% and 0.9258%"}, {"measurement": "cAMP %", "setting": "mMOR [3]; Log[drug] (M) -8", "value": "-5.129% and 6.21% and -1.081% and 7.275% and 2.298% and 9.574% and 9.25% and -4.751% and 0.6222%"}, {"measurement": "cAMP %", "setting": "mMOR [3]; Log[drug] (M) -9", "value": "2.051% and -8.733% and 10.4525% and -1.843% and 3.825% and 12.7464% and 9.611% and 1.736% and 14.7967%"}, {"measurement": "cAMP %", "setting": "mMOR [3]; Log[drug] (M) -10", "value": "-1.957% and 12.894% and -4.791% and 0.07219% and 0.3304% and -0.4025% and -1.324% and -2.101% and 5.511%"}, {"measurement": "cAMP %", "setting": "mMOR [3]; Log[drug] (M) -11", "value": "22.2971% and -9.038% and -0.05376% and 20.8701% and 7.205% and 16.4135% and 3.836% and -1.905% and 3.566%"}, {"measurement": "cAMP %", "setting": "mMOR [3]; Log[drug] (M) -13, cAMP inhibition as % of DAMGO", "value": "-0.5682% and 13.1006% and 15.0829% and 7.325% and 4.046% and 5.291% and 0.9156% and 1.033% and -1.949%"}, {"measurement": "Emax", "setting": "mMOR [3]; maximal inhibitory effect on cAMP levels relative to DAMGO", "value": 13, "unit": "%"}, {"measurement": "EC50", "setting": "mMOR [3]; n = 3, read-out: EC50", "value": 841, "unit": "nM"}, {"measurement": "Ki", "setting": "mDOR", "value": "47.2 ± 2.4", "unit": "nM"}, {"measurement": "IC50", "setting": "hMOR", "value": 920, "unit": "nM"}]}
